Assay results reported in publication PMC9097129, “C-terminal mini-PEGylation of a marine peptide N6 had potent antibacterial and anti-inflammatory properties against Escherichia coli and Salmonella strains in vitro and in vivo” (BMC Microbiology, 2022).

Experiments:
E. coli 0111:B4 LPS = assay: Endotoxemia mouse model, serum cytokines by ELISA; format: in vivo, mice; design: levels of TNF-α in sera: unit not given here; settings: for levels of TNF-α in sera / levels of IL-1β in sera: ELISA kit, mean of n = 3; for Decrease of serum IL-1β level / Decrease of serum IL-6 level / Decrease of serum IL-10 level / Decrease of serum TNF-α level: LPS 10 mg/kg i.p., peptides 0.25 μmol/kg, PMB 10 μmol/kg, CIP 5 μmol/kg
Experimental: The mice (10 mice/group) were injected intraperitoneally with N6 and N6-COOH-miniPEG (0.25 μmol/kg), PMB (10 μmol/kg) or CIP (5 μmol/kg) 0.5 h after challenge with 10 mg/kg E. coli 0111:B4 LPS. Blood was collected in a heparin sodium tube at 2 or 8 h after LPS injection and incubated for 30 min at 37 °C and then overnight at 4 °C. After centrifugation at 3,000 rpm for 10 min at 4 °C, serum was collected from supernatant. The cytokine levels of TNF-α, IL-6, IL-1β and IL-10 in serum were detected by the Jiaxuan Biotech. Co. Ltd. (Beijing, China) using an ELISA. […]

E. coli CVCC195 [1] = assay: Mouse peritonitis model, survival; format: in vivo, ICR mice; design: survival of mice in E. coli lethal model: unit not given here
Experimental: To evaluate in vivo efficacy of N6 and N6-COOH-miniPEG, the 6-week-old female ICR mice, weight 20 ± 2 g (10 mice/group) were intraperitoneally injected with E. coli CVCC195 or S. pullorum CVCC533 at a concentration of absolute lethal dose (LD100). After the intraperitoneal injection with E. coli CVCC195 (1 × 10^9 CFU/mL, 0.2 mL), the mice were treated with N6 (2 and 4 μmol/kg), N6-COOH-miniPEG (2 and 4 μmol/kg) or PMB (0.125 and 0.25 μmol/kg) at 0.5 h and 8 h, respectively.
(§1) Similarly, after the intraperitoneal injection with S. pullorum CVCC533 (5 × 10^7 CFU/mL, 0.2 mL), the mice were treated with N6 (8 and 10 μmol/kg), N6-COOH-miniPEG (8 and 10 μmol/kg) or CIP (0.8 and 1 μmol/kg) at 0.5 h, respectively. The mice injected with antibiotics or PBS served as the positive and blank control (CK), respectively. Survival of the mice was recorded daily for 7 d.

E. coli CVCC195 [2] = assay: Organ injury, histopathology (HE); format: in vivo, mice; settings: 24 h and 5 d post-treatment, peptides 4 μmol/kg, HE staining
Experimental: (§2) The mice were treated with N6 (4 and 10 μmol/kg) and N6-COOH-miniPEG (4 and 10 μmol/kg) after intraperitoneal injection of E. coli CVCC195 for 0.5 and 8 h or S. pullorum CVCC533 for 0.5 h as described above. Livers, spleens, kidneys and lungs were removed from the mice at 24 h and 5 d post-treatment after E. coli CVCC195 injection and at 48 h and 4 d post-treatment after S. pullorum CVCC533 injection, respectively, washed in PBS, fixed in 4% paraformaldehyde at 4 °C for 24 h, and stained with hematoxylin and eosin (HE) for histopathology analysis. Finally, the tissue samples were fixed and observed by the light microscope. The uninfected mice served as the blank control (CK); the infected mice being treated with PBS were used as the negative control.

E. coli CVCC195 [3] = assay: Bacterial translocation, bacterial loads in organs; format: in vivo, mice; design: unit not given here; settings: mean of n = 3
Experimental: (§3) The mice (10 mice/group) were challenged with E. coli CVCC195 (1 × 10^9 CFU/mL, 0.2 mL) or S. pullorum CVCC533 (5 × 10^7 CFU/mL, 0.2 mL) by intraperitoneal injection and treated with N6 (4 and 10 μmol/kg) or N6-COOH-miniPEG (4 and 10 μmol/kg). To evaluate bacterial loads in organs, the livers, spleens, kidneys and lungs were removed from the sacrificed mice at 24 h post treatment and homogenized in sterile PBS for E. coli CVCC195 colony counting; similarly, the livers, spleens, kidneys and lungs were removed from the sacrificed mice at 48 h after treatment and homogenized in sterile PBS for S. pullorum CVCC533 colony counting. The uninfected mice served as the blank control (CK); the infected mice treated with PBS were used as the negative control. The mice were sacrificed by neck dislocation under inhaled isoflurane anesthesia (RWD Life Science Co., LTD. Shenzhen, China).

S. pullorum CVCC533 [4] = assay: Mouse peritonitis model, survival; format: in vivo, ICR mice
Experimental: as §1

S. pullorum CVCC533 [5] = assay: Bacterial translocation, bacterial loads in organs; format: in vivo, mice; design: bacteria counted in the organs of mice infected with S. pullorum: unit not given here
Experimental: as §3

S. pullorum CVCC533 [6] = assay: Time-killing curves; format: cell-based, Salmonella pullorum; settings: 1 × MIC
Experimental: The sample (100 μL) was taken from each flask at 0, 0.5, 1, 2, 4, 6, 8, 10, 12, and 24 h, respectively and serially diluted for colony counting. The group untreated with peptides was a blank control. PMB and CIP were used as the positive control. Similarly, bacterial cells (1 × 10^5 CFU/mL) were incubated with 3/128, 1/32, 3/64, 1/16, 3/32, 1/8, 3/16, 1/4, 3/8, 1/2, 3/4, 1, 2, 3, and 4 × MIC N6 or N6-COOH-miniPEG. The sample was taken from each flask at 24 h and serially diluted for colony counting.

S. pullorum CVCC533 [7] = assay: Organ injury, histopathology (HE); format: in vivo, mice; settings: 48 h and 4 d post-treatment, peptides 10 μmol/kg, HE staining
Experimental: as §2

[8] = peptides 10 μmol/kg, CIP 1 μmol/kg, 48 h after treatment, versus untreated infected mice

polymyxin B [PMB] was tested, and the “levels of TNF-α in sera” value (E. coli 0111:B4 LPS; 2 h after treatment) was 99.8667, the “levels of TNF-α in sera” value (E. coli 0111:B4 LPS; 8 h after treatment) was 239.767 and the “survival of mice in E. coli lethal model” value (E. coli CVCC195 [1]; 0.125 μmol/kg, day 0) was 100. The “survival of mice in E. coli lethal model” value (E. coli CVCC195 [1]; 0.125 μmol/kg, day 1) was 80, the “survival of mice in E. coli lethal model” value (E. coli CVCC195 [1]; 0.125 μmol/kg, day 2) was 60 and the “survival of mice in E. coli lethal model” value (E. coli CVCC195 [1]; 0.125 μmol/kg, day 3) was 30. The “survival of mice in E. coli lethal model” value (E. coli CVCC195 [1]; 0.125 μmol/kg, day 4) was 30, the “survival of mice in E. coli lethal model” value (E. coli CVCC195 [1]; 0.125 μmol/kg, day 5) was 30 and the “survival of mice in E. coli lethal model” value (E. coli CVCC195 [1]; 0.125 μmol/kg, day 6) was 30. For the same molecule, the “survival of mice in E. coli lethal model” value (E. coli CVCC195 [1]; 0.125 μmol/kg, day 7) was 30, the “Survival rate of mice” value (E. coli CVCC195 [1]; 0.25 μmol/kg i.p. at 0.5 h and 8 h, 7 d) was 100% and the “survival of mice in E. coli lethal model” value (E. coli CVCC195 [1]; 0.25 μmol/kg, day 0) was 100. The “survival of mice in E. coli lethal model” value (E. coli CVCC195 [1]; 0.25 μmol/kg, day 1) was 100, the “survival of mice in E. coli lethal model” value (E. coli CVCC195 [1]; 0.25 μmol/kg, day 2) was 100 and the “survival of mice in E. coli lethal model” value (E. coli CVCC195 [1]; 0.25 μmol/kg, day 3) was 100. The “survival of mice in E. coli lethal model” value (E. coli CVCC195 [1]; 0.25 μmol/kg, day 4) was 100, the “survival of mice in E. coli lethal model” value (E. coli CVCC195 [1]; 0.25 μmol/kg, day 5) was 100 and the “survival of mice in E. coli lethal model” value (E. coli CVCC195 [1]; 0.25 μmol/kg, day 6) was 100. The “survival of mice in E. coli lethal model” value (E. coli CVCC195 [1]; 0.25 μmol/kg, day 7) was 100, the “Organ injury, histopathology” value (E. coli CVCC195 [2]) was “apparently less damage of liver, spleen, kidney and lung” and the “bacteria counted in the organs of mice infected with E. coli” value (“bacteria counted … with E. coli” for short) (E. coli CVCC195 [3]; Kidney) was 3.851. For the same molecule, the “bacteria counted … with E. coli” value (E. coli CVCC195 [3]; Liver) was 3.743, the “bacteria counted … with E. coli” value (E. coli CVCC195 [3]; Lung) was 3.796 and the “bacteria counted … with E. coli” value (E. coli CVCC195 [3]; Spleen) was 3.605.

In the case of `O=C(O)c1cn(C2CC2)c2cc(N3CCNCC3)c(F)cc2c1=O` [CIP], the “survival of mice in S. pullorum lethal model” value (S. pullorum CVCC533 [4]; 0.8 μmol/kg, day 0) is reported as 100, the “survival of mice in S. pullorum lethal model” value (S. pullorum CVCC533 [4]; 0.8 μmol/kg, day 1) is reported as 100 and the “survival of mice in S. pullorum lethal model” value (S. pullorum CVCC533 [4]; 0.8 μmol/kg, day 2) is reported as 100. The “survival of mice in S. pullorum lethal model” value (S. pullorum CVCC533 [4]; 0.8 μmol/kg, day 3) was 100, the “survival of mice in S. pullorum lethal model” value (S. pullorum CVCC533 [4]; 0.8 μmol/kg, day 4) was 83.3333 and the “survival of mice in S. pullorum lethal model” value (S. pullorum CVCC533 [4]; 0.8 μmol/kg, day 5) was 83.3333. The “survival of mice in S. pullorum lethal model” value (S. pullorum CVCC533 [4]; 0.8 μmol/kg, day 6) was 83.3333, the “survival of mice in S. pullorum lethal model” value (S. pullorum CVCC533 [4]; 0.8 μmol/kg, day 7) was 83.3333 and the “Survival rate of mice” value (S. pullorum CVCC533 [4]; 1 μmol/kg i.p. at 0.5 h (legend of Fig. 6: 0.5 and 8 h), 7 d) was 100%. The “survival of mice in S. pullorum lethal model” value (S. pullorum CVCC533 [4]; 1 μmol/kg, day 0) was 100, the “survival of mice in S. pullorum lethal model” value (S. pullorum CVCC533 [4]; 1 μmol/kg, day 1) was 100 and the “survival of mice in S. pullorum lethal model” value (S. pullorum CVCC533 [4]; 1 μmol/kg, day 2) was 100. The “survival of mice in S. pullorum lethal model” value (S. pullorum CVCC533 [4]; 1 μmol/kg, day 3) was 100, the “survival of mice in S. pullorum lethal model” value (S. pullorum CVCC533 [4]; 1 μmol/kg, day 4) was 100 and the “survival of mice in S. pullorum lethal model” value (S. pullorum CVCC533 [4]; 1 μmol/kg, day 5) was 100. The “survival of mice in S. pullorum lethal model” value (S. pullorum CVCC533 [4]; 1 μmol/kg, day 6) was 100, the “survival of mice in S. pullorum lethal model” value (S. pullorum CVCC533 [4]; 1 μmol/kg, day 7) was 100 and the “Decrease of serum IL-1β level” value (E. coli 0111:B4 LPS; 2 h) was 9.13%. The “Decrease of serum IL-6 level” value (E. coli 0111:B4 LPS; 2 h) was 30.83%, the “Decrease of serum IL-10 level” value (E. coli 0111:B4 LPS; 2 h) was 15.33% and the “Decrease of serum TNF-α level” value (E. coli 0111:B4 LPS; 2 h) was 1.78%. For the same molecule, the “levels of IL-1β in sera” value (E. coli 0111:B4 LPS; 2 h after treatment) was 87.9333, the “levels of TNF-α in sera” value (E. coli 0111:B4 LPS; 2 h after treatment) was 153 and the “Decrease of serum IL-1β level” value (E. coli 0111:B4 LPS; 8 h) was 0.07%. For the same molecule, the “Decrease of serum IL-6 level” value (E. coli 0111:B4 LPS; 8 h) was -0.24%, the “Decrease of serum IL-10 level” value (E. coli 0111:B4 LPS; 8 h) was 0.13% and the “Decrease of serum TNF-α level” value (E. coli 0111:B4 LPS; 8 h) was -0.37%. For the same molecule, the “levels of IL-1β in sera” value (E. coli 0111:B4 LPS; 8 h after treatment) was 171.167, the “levels of TNF-α in sera” value (E. coli 0111:B4 LPS; 8 h after treatment) was 559.733 and the “bacteria counted in the organs of mice infected with S. pullorum” value (“bacteria counted … with S. pullorum” below) (S. pullorum CVCC533 [5]; Kidney, mean) was 3.299. The “bacteria counted … with S. pullorum” value (S. pullorum CVCC533 [5]; Liver, replicate 1) was 3.641, the “bacteria counted … with S. pullorum” value (S. pullorum CVCC533 [5]; Liver, replicate 2) was 4.221 and the “bacteria counted … with S. pullorum” value (S. pullorum CVCC533 [5]; Lung, mean) was 3.527. The “bacteria counted … with S. pullorum” value (S. pullorum CVCC533 [5]; Spleen, replicate 1) was 4.255, the “bacteria counted … with S. pullorum” value (S. pullorum CVCC533 [5]; Spleen, replicate 2) was 4.222 and the “bacteria counted … with S. pullorum” value (S. pullorum CVCC533 [5]; Spleen, replicate 3) was 3.905. The “Decrease of bacterial count in kidneys” value (S. pullorum CVCC533 [5]; [8]) was 40.20%, the “Decrease of bacterial count in livers” value (S. pullorum CVCC533 [5]; [8]) was 31.66% and the “Decrease of bacterial count in lungs” value (S. pullorum CVCC533 [5]; [8]) was 43.65%. The “Decrease of bacterial count in spleens” value (S. pullorum CVCC533 [5]; [8]) was 47.75%, the “Time to kill 99.9% of cells” value (S. pullorum CVCC533 [6]) was ≤ 6 h and the “Organ injury, histopathology” value (S. pullorum CVCC533 [7]) was “apparently less damage of liver, spleen, kidney and lung”.
